Laboratory results taken from patent US12077503B2, “Substituted cyclic amides and their use as herbicides” (FMC CORPORATION, priority 2015, dated 2024).

How the values were obtained:
Assay in all cases: Test C preemergence
Assay type in all cases: in vivo
[1] = system: blackgrass (Alopecurus myosuroides); settings: for Plant response rating, Blackgrass: scale 0 to 100, 0 no effect, 100 complete control
Summary of the method: (§1)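 Assessment: visual, 13–15 d after treatment, 0 (no effect) to 100 (complete control) relative to controls. Treatment: preemergence to seeds in loam-sand soil, or postemergence to 1- to 4-leaf plants in peat-based medium. Formulation: non-phytotoxic solvent mixture with surfactant.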

[2] = system: lambsquarters (Chenopodium album); settings: for Plant response rating, Lambsquarters: scale 0 to 100, 0 no effect, 100 complete control
Summary of the method: as §1

[3] = system: foxtail, giant (giant foxtail, Setaria faberii); settings: for Plant response rating, Foxtail, Giant: scale 0 to 100, 0 no effect, 100 complete control
Summary of the method: as §1

[4] = system: wheat (winter wheat, Triticum aestivum); settings: for Plant response rating, Wheat: scale 0 to 100, 0 no effect, 100 complete control
Summary of the method: as §1

[5] = system: corn (Zea mays); settings: for Plant response rating, Corn: scale 0 to 100, 0 no effect, 100 complete control
Summary of the method: as §1

[6] = system: ryegrass, Italian (Italian ryegrass, Lolium multiflorum); settings: for Plant response rating, Ryegrass, Italian: scale 0 to 100, 0 no effect, 100 complete control
Summary of the method: as §1

[7] = system: waterhemp (common waterhemp, Amaranthus rudis); settings: for Plant response rating, Waterhemp: scale 0 to 100, 0 no effect, 100 complete control
Summary of the method: as §1

[8] = system: nutsedge, yellow (yellow nutsedge, Cyperus esculentus); settings: for Plant response rating, Nutsedge, Yellow: scale 0 to 100, 0 no effect, 100 complete control
Summary of the method: as §1

[9] = system: soybean (Glycine max); settings: for Plant response rating, Soybean: scale 0 to 100, 0 no effect, 100 complete control
Summary of the method: as §1

[10] = system: oilseed rape (Brassica napus); settings: for Plant response rating, Oilseed Rape: scale 0 to 100, 0 no effect, 100 complete control
Summary of the method: as §1

[11] = system: Galium (catchweed bedstraw, Galium aparine); settings: for Plant response rating, Galium: scale 0 to 100, 0 no effect, 100 complete control
Summary of the method: as §1

[12] = system: morningglory (Ipomoea coccinea); settings: for Plant response rating, Morningglory: scale 0 to 100, 0 no effect, 100 complete control
Summary of the method: as §1

[13] = system: ragweed (common ragweed, Ambrosia elatior); settings: for Plant response rating, Ragweed: scale 0 to 100, 0 no effect, 100 complete control
Summary of the method: as §1

[14] = system: johnsongrass (Sorghum halepense); settings: for Plant response rating, Johnsongrass: scale 0 to 100, 0 no effect, 100 complete control
Summary of the method: as §1

[15] = system: velvetleaf (Abutilon theophrasti); settings: for Plant response rating, Velvetleaf: scale 0 to 100, 0 no effect, 100 complete control
Summary of the method: as §1

[16] = system: crabgrass, large (large crabgrass, Digitaria sanguinalis); settings: for Plant response rating, Crabgrass, Large: scale 0 to 100, 0 no effect, 100 complete control
Summary of the method: as §1

[17] = system: barnyardgrass (Echinochloa crus-galli); settings: for Plant response rating, Barnyardgrass: scale 0 to 100, 0 no effect, 100 complete control
Summary of the method: as §1

[18] = 31 g ai/ha, 0 is no effect, 100 is complete control

CN1CC(c2cccc(OC(F)F)c2)C(C(=O)Nc2ccccc2F)C1=O (centres unmarked) [Compound 618]
0: Plant response rating (scale of 0 to 100), Blackgrass [1, 18] | Plant response rating (scale of 0 to 100), Nutsedge, Yellow [8, 18] | Plant response rating, Nutsedge, Yellow ([8]; 62 g ai/ha) | Plant response rating, Nutsedge, Yellow ([8]; 125 g ai/ha) | Plant response rating (scale of 0 to 100), Soybean [9, 18] | Plant response rating, Soybean ([9]; 125 g ai/ha) | Plant response rating, Soybean ([9]; 250 g ai/ha) | Plant response rating (scale of 0 to 100), Galium [11, 18] | Plant response rating, Galium ([11]; 62 g ai/ha) | Plant response rating (scale of 0 to 100), Morningglory [12, 18] | Plant response rating, Morningglory ([12]; 62 g ai/ha) | Plant response rating (scale of 0 to 100), Velvetleaf [15, 18]
50: Plant response rating (scale of 0 to 100), Lambsquarters [2, 18] | Plant response rating, Lambsquarters ([2]; 62 g ai/ha) | Plant response rating, Corn ([5]; 62 g ai/ha) | Plant response rating, Ryegrass, Italian ([6]; 62 g ai/ha)
45: Plant response rating (scale of 0 to 100), Ryegrass, Italian [6, 18] | Plant response rating, Ryegrass, Italian ([6]; 125 g ai/ha)
10: Plant response rating, Blackgrass ([1]; 62 g ai/ha) | Plant response rating, Nutsedge, Yellow ([8]; 250 g ai/ha) | Plant response rating, Soybean ([9]; 62 g ai/ha) | Plant response rating, Morningglory ([12]; 125 g ai/ha)
65: Plant response rating, Waterhemp ([7]; 125 g ai/ha) | Plant response rating, Ragweed ([13]; 125 g ai/ha)
40: Plant response rating (scale of 0 to 100), Ragweed [13, 18] | Plant response rating, Ragweed ([13]; 62 g ai/ha)
80: Plant response rating, Blackgrass ([1]; 250 g ai/ha) | Plant response rating, Wheat ([4]; 250 g ai/ha) | Plant response rating, Ragweed ([13]; 250 g ai/ha)
85: Plant response rating, Corn ([5]; 250 g ai/ha) | Plant response rating, Waterhemp ([7]; 250 g ai/ha) | Plant response rating, Oilseed Rape ([10]; 62 g ai/ha) | Plant response rating, Galium ([11]; 125 g ai/ha) | Plant response rating, Johnsongrass ([14]; 125 g ai/ha) | Plant response rating, Johnsongrass ([14]; 250 g ai/ha)
20: Plant response rating (scale of 0 to 100), Wheat [4, 18] | Plant response rating (scale of 0 to 100), Johnsongrass [14, 18]
100: Plant response rating (scale of 0 to 100), Crabgrass, Large [16, 18] | Plant response rating, Crabgrass, Large ([16]; 62 g ai/ha) | Plant response rating, Crabgrass, Large ([16]; 125 g ai/ha) | Plant response rating, Crabgrass, Large ([16]; 250 g ai/ha)
70: Plant response rating, Lambsquarters ([2]; 125 g ai/ha)
60: Plant response rating, Blackgrass ([1]; 125 g ai/ha) | Plant response rating (scale of 0 to 100), Waterhemp [7, 18] | Plant response rating, Waterhemp ([7]; 62 g ai/ha) | Plant response rating (scale of 0 to 100), Oilseed Rape [10, 18] | Plant response rating, Johnsongrass ([14]; 62 g ai/ha) | Plant response rating, Velvetleaf ([15]; 250 g ai/ha)
75: Plant response rating, Lambsquarters ([2]; 250 g ai/ha) | Plant response rating, Wheat ([4]; 125 g ai/ha) | Plant response rating, Corn ([5]; 125 g ai/ha)
90: Plant response rating (scale of 0 to 100), Foxtail, Giant [3, 18] | Plant response rating, Foxtail, Giant ([3]; 62 g ai/ha) | Plant response rating, Foxtail, Giant ([3]; 125 g ai/ha) | Plant response rating, Oilseed Rape ([10]; 125 g ai/ha) | Plant response rating, Oilseed Rape ([10]; 250 g ai/ha) | Plant response rating, Galium ([11]; 250 g ai/ha)
55: Plant response rating, Ryegrass, Italian ([6]; 250 g ai/ha) | Plant response rating, Velvetleaf ([15]; 125 g ai/ha)
95: Plant response rating, Foxtail, Giant ([3]; 250 g ai/ha) | Plant response rating (scale of 0 to 100), Barnyardgrass [17, 18] | Plant response rating, Barnyardgrass ([17]; 62 g ai/ha) | Plant response rating, Barnyardgrass ([17]; 125 g ai/ha)
98: Plant response rating, Barnyardgrass ([17]; 250 g ai/ha)
30: Plant response rating, Wheat ([4]; 62 g ai/ha) | Plant response rating (scale of 0 to 100), Corn [5, 18]
5: Plant response rating, Morningglory ([12]; 250 g ai/ha) | Plant response rating, Velvetleaf ([15]; 62 g ai/ha)
